Measurements: patent publication US12138256B2, “Treatment of cardiopulmonary disorders” (Bayer Aktiengesellschaft, priority 2021, dated 2024)

System: isolated Langendorff-perfused rat heart
Test: Isolated perfused heart according to Langendorff: perfusion pressure and wash-out score (C-1.2)
Details: for wash-out score: PP recovery after 60 min of washout related to maximum drop of PP; for wash-out score / effect on perfusion pressure (PP): comparative example 11 300 nmol/l, others 100 nmol/l, n=6; for Perfusion pressure (%) (timepoint at 20 min) Mean: isolated Langendorff-perfused rat heart; for Perfusion pressure (%) (timepoint at 90 min) Mean: wash-out phase
Method in brief: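 Hearts from male Wistar rats (200–250 g) perfused retrogradely at constant flow, 9 ml/min, with Krebs-Henseleit buffer (pH 7.4, 35 °C), beating spontaneously, LV balloon end-diastolic pressure set to 8 mm Hg. After compound, 120 min wash-out; score = % perfusion-pressure recovery at 60 min relative to the maximal compound-induced drop.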

O=C(O)CCCCN(CCc1ccccc1OCc1ccc(CCc2ccccc2)cc1)Cc1ccc(C(=O)O)cc1 [comparative example 1, 4-[((4Carboxybutyl)-{2-[(4-phenethylbenzyl)oxy]phenethyl}amino)methyl]benzoic acid]
wash-out score: 30% | effect on perfusion pressure (PP): pronounced reduction of perfusion pressure

O=C(O)CCCCN(CCc1cc(F)ccc1OCc1ccc(-c2nc3cc(Cl)ccc3o2)cc1)C1CCCc2nc(C(=O)O)ccc21 (single isomer, unassigned) [comparative example 3, (5)-{(4-carboxybutyl)[2-(2-{[4-(5-chloro-1,3-benzoxazol-2-yl)benzyl]oxy}-5-fluorophenyl)ethyl]amino}-5,6,7,8-tetrahydroquinoline-2-carboxylic acid]
Wash-out score (%) after 60 min (100 nmol/l): 25.4% | Perfusion pressure (%) (timepoint at 20 min) Mean (100 nmol/l): 63.3% | Perfusion pressure (%) (timepoint at 90 min) Mean (100 nmol/l): 72.5% | wash-out score: 25.4% | effect on perfusion pressure (PP): pronounced reduction of perfusion pressure

O=C(O)c1ccc(CCN(CCc2ccccc2OCc2ccc(-c3ccc(C(F)(F)F)cc3)cc2Cl)[C@H]2CCCc3nc(C(=O)O)ccc32)cc1 [comparative example 11, (5S)-5-{[2-(4-carboxyphenyl)ethyl][2-(2-{[3-chloro-4′-(trifluoromethyl)[biphenyl]-4-yl]methoxy}phenyl)ethyl]amino}-5,6,7,8-tetrahydroquinoline-2-carboxylic acid]
Wash-out score (%) after 60 min (300 nmol/l): 2.9% | Perfusion pressure (%) (timepoint at 20 min) Mean (300 nmol/l): 69.0% | Perfusion pressure (%) (timepoint at 90 min) Mean (300 nmol/l): 71.9% | wash-out score: 2.9% | effect on perfusion pressure (PP): pronounced reduction of perfusion pressure
